Data as given in patent US10759816B2, “Heterocyclic compounds as RSV inhibitors” (Enanta Pharmaceuticals, Inc., priority 2016, dated 2020).

Tested on: genotype A, "Long" strain RSV
Test: RSV-A in vitro cytoprotection assay in HEp-2 cells (ATPlite readout of cell viability)
Format: cell-based, Human respiratory syncytial virus
Settings: human respiratory syncytial virus, HEp-2, HEp-2 cells, genotype A “Long” strain RSV, cytoprotection; read-out: Human RSV-A (“Long” strain) EC50
How it was run: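 HEp-2 cells (8,000/well) given 2-fold compound dilutions in duplicate, then infected with RSV-A Long strain stock; viability read by ATPlite luminescence after 4 days. EC50 derived from cytoprotection; cytotoxicity measured on parallel uninfected plate.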

SMILES | EC50 [µM]
Cc1cccc(F)c1NC(=O)c1cc2c(s1)-c1ccccc1N(C(=O)c1cccc(N3CCC[C@@H]3c3ccccc3)n1)CC2 [Example 473] | < 0.4
Cc1cccc(F)c1NC(=O)c1cc2c(s1)-c1ccccc1N(C(=O)c1cccc(N3CCC[C@@H]3C#N)n1)CC2 [Example 474] | < 0.4
Cc1cccc(F)c1NC(=O)c1cc2c(s1)-c1ccccc1N(C(=O)c1cccc(N3C(=O)OC[C@@H]3C(C)C)n1)CC2 [Example 475] | < 0.4
Cc1cccc(F)c1NC(=O)c1cc2c(s1)-c1ccccc1N(C(=O)c1cccc(NC3CS(=O)(=O)c4ccccc43)n1)CC2 (stereo not shown) [Example 476] | < 0.4
Cc1cccc(F)c1NC(=O)c1cc2c(s1)-c1ccccc1N(C(=O)c1cccc(N[C@H]3CCCNC3=O)n1)CC2 [Example 477] | > 0.8
Cc1cccc(F)c1NC(=O)c1cc2c(s1)-c1ccccc1N(C(=O)c1cccc(N3CCC[C@H](N)C3=O)n1)CC2 [Example 478] | > 0.8
Cc1cccc(F)c1NC(=O)c1cc2c(s1)-c1ccccc1N(C(=O)c1cccc(N3CCC[C@@H]3C)n1)CC2 [Example 479] | < 0.4
Cc1cccc(F)c1NC(=O)c1cc2c(s1)-c1ccccc1N(C(=O)c1cccc(N3C[C@H](O)C[C@@H]3C)n1)CC2 [Example 480] | < 0.4
Cc1cccc(F)c1NC(=O)c1cc2c(s1)-c1ccccc1N(C(=O)c1cccc(N(C[C@H]3CCCO3)C3CCC3)n1)CC2 [Example 481] | < 0.4
Cc1cccc(F)c1NC(=O)c1cc2c(s1)-c1ccccc1N(C(=O)c1cccc(N3CCC[C@@H]3C(C)C)n1)CC2 [Example 482] | > 0.8
Cc1cccc(F)c1NC(=O)c1cc2c(s1)-c1ccccc1N(C(=O)c1cccc(N3CCC[C@H]3C(C)C)n1)CC2 [Example 483] | < 0.4
Cc1cccc(F)c1NC(=O)c1cc2c(s1)-c1ccccc1N(C(=O)c1cccc(N3CCC[C@@H]3c3ccccn3)n1)CC2 [Example 484] | < 0.4
Cc1cccc(F)c1NC(=O)c1cc2c(s1)-c1ccccc1N(C(=O)c1cccc(N3CCC[C@H]3c3ccccn3)n1)CC2 [Example 485] | > 0.8
Cc1cccc(F)c1NC(=O)c1cc2c(s1)-c1ccccc1N(C(=O)c1cccc(N3CCC[C@@H]3Cc3ccccc3)n1)CC2 [Example 486] | > 0.8
Cc1cccc(F)c1NC(=O)c1cc2c(s1)-c1ccccc1N(C(=O)c1cccc(N3CCC[C@H]3Cc3ccccc3)n1)CC2 [Example 487] | 0.4 to 0.8
Cc1cccc(F)c1NC(=O)c1cc2c(s1)-c1ccc(F)cc1N(C(=O)c1cccc(N3CCOc4ccccc4C3)n1)CC2 [Example 488] | < 0.4
Cc1cccc(F)c1NC(=O)c1cc2c(s1)-c1c(F)cccc1N(C(=O)c1cccc(N3CCOc4ccccc4C3)n1)CC2 [Example 489] | < 0.4
COC[C@H]1CCCN1c1cccc(C(=O)N2CCc3cc(C(=O)Nc4c(C)cccc4F)sc3-c3ccc(F)cc32)n1 [Example 490] | < 0.4
Cc1cccc(F)c1NC(=O)c1cc2c(s1)-c1ccc(F)cc1N(C(=O)c1cccc(N(C)C[C@H]3CCCO3)n1)CC2 [Example 491] | < 0.4
Cc1cccc(F)c1NC(=O)c1cc2c(s1)-c1ccc(F)cc1N(C(=O)c1cccc(N3C(=O)CC[C@@H]3CN)n1)CC2 [Example 492] | > 0.8
Cc1cccc(F)c1NC(=O)c1cc2c(s1)-c1ccc(F)cc1N(C(=O)c1cccc(N3C[C@@H](O)C[C@@H]3C)n1)CC2 [Example 493] | < 0.4
CCS(=O)(=O)CCNc1cccc(C(=O)N2CCc3cc(C(=O)Nc4c(C)cccc4F)sc3-c3ccccc32)n1 [Example 494] | < 0.4
Cc1cccc(F)c1NC(=O)c1cc2c(s1)-c1ccccc1N(C(=O)c1cccc(N3C[C@@H](O)C[C@@H]3C)n1)CC2 [Example 495] | < 0.4
Cc1noc([C@H]2C[C@@H](O)CN2c2cccc(C(=O)N3CCc4cc(C(=O)Nc5c(C)cccc5F)sc4-c4ccccc43)n2)n1 [Example 496] | > 0.8
Cc1noc([C@H]2C[C@H](O)CN2c2cccc(C(=O)N3CCc4cc(C(=O)Nc5c(C)cccc5F)sc4-c4ccccc43)n2)n1 [Example 497] | > 0.8
